Activity calls are given as the source filed them. No cut-off for these calls is given here.
Key:
[1] = system: MCF7; test: Induction of apoptosis in human MCF7 cells assessed as viable cells at 2 uM after 48 hrs by Annexin-V-FITC/propidium iodide staining based flow cytometry (reference value: 91.1%); format: functional; details: MCF7, 48 h, read-out: Activity
[2] = system: MDA-MB-231; test: Induction of apoptosis in human MDA-MB-231 cells assessed as late apoptotic cells at 4 uM after 48 hrs by Annexin-V-FITC/propidium iodide staining based flow cytometry (reference value: 2.38%); format: functional
[3] = system: MDA-MB-231; test: Cell cycle arrest in human MDA-MB-231 cells assessed as accumulation at G2 phase at 6 uM after 24 hrs by propidium iodide/RNase A staining-based flow cytometric analysis (reference value: 27.76%); format: functional
[4] = system: PC-3; test: Cytotoxicity against human PC3 cells assessed as reduction in cell viability after 72 hrs by MTT assay; format: functional, cell-based; details: PC-3, 72 h
[5] = system: MDA-MB-231; test: Cell cycle arrest in human MDA-MB-231 cells assessed as accumulation at G1 phase at 3 uM after 24 hrs by propidium iodide/RNase A staining-based flow cytometric analysis (reference value: 49.17%); format: functional
[6] = system: MDA-MB-231; test: Inhibition of colony formation in human MDA-MB-231 cells at 9 uM after 7 days by crystal violet staining based microscopic analysis; format: functional, cell-based
[7] = system: MCF7; test: Induction of apoptosis in human MCF7 cells assessed as increase in nuclear lysis up to 8 uM after 48 hrs by DAPI staining-based fluorescence microscopic method; format: functional, cell-based
[8] = system: MCF7; test: Induction of apoptosis in human MCF7 cells after 48 hrs by Annexin-V-FITC/propidium iodide staining based flow cytometry; format: functional, cell-based
[9] = system: MCF7; test: Induction of apoptosis in human MCF7 cells assessed as late apoptotic cells at 4uM after 48 hrs by Annexin-V-FITC/propidium iodide staining based flow cytometry (reference value: 4.28%); format: functional
[10] = system: MCF7; test: Inhibition of colony formation in human MCF7 cells at 9 uM after 7 days by crystal violet staining based microscopic analysis; format: functional, cell-based
[11] = target: Epidermal growth factor receptor (Homo sapiens) (UniProt P00533); test: Inhibition of EGFR phosphorylation at Y1068 residues in human MDA-MB-231 cells after 8 hrs by Western blot analysis; format: cell-based
Chain of Epidermal growth factor receptor (Homo sapiens) (P00533 whole entry): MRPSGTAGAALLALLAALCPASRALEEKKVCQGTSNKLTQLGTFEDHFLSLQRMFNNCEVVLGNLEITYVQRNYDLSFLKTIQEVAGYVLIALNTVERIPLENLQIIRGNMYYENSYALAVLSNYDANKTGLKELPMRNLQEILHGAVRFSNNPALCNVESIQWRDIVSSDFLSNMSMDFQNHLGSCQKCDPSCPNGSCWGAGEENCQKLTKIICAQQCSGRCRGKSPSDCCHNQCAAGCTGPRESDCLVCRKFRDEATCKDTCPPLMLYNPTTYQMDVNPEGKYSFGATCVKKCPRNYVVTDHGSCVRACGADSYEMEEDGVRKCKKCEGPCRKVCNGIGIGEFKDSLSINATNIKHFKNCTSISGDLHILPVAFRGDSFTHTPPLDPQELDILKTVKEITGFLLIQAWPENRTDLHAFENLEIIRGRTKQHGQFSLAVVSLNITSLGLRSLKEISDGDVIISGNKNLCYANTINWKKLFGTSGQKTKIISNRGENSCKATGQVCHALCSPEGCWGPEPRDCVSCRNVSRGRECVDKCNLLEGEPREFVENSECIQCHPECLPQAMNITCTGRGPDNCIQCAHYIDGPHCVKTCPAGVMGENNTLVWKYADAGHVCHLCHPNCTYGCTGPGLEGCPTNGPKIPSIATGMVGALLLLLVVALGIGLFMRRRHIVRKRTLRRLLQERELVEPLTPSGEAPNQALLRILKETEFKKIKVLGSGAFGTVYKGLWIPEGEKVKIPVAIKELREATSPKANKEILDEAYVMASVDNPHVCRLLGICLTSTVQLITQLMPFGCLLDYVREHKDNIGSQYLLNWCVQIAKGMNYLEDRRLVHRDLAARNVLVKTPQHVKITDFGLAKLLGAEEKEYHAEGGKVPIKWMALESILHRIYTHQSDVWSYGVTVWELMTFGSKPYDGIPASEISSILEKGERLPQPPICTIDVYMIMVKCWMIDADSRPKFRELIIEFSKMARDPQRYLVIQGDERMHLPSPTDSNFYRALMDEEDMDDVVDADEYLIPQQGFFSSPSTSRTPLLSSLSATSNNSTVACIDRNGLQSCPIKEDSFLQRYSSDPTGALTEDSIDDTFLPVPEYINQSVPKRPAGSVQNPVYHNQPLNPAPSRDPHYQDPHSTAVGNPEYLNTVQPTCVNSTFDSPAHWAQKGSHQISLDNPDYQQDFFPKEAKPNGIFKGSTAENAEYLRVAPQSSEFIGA

[12] = system: MCF7; test: Induction of apoptosis in human MCF7 cells assessed as late apoptotic cells at 2 uM after 48 hrs by Annexin-V-FITC/propidium iodide staining based flow cytometry (reference value: 4.28%); format: functional
[13] = system: MCF7; test: Antimigratory activity against human MCF7 cells assessed as reduction in scratch healing after 72 hrs by microscopy based scratch wound assay; format: functional, cell-based
[14] = system: MCF7; test: Induction of apoptosis in human MCF7 cells assessed as increase in ROS generation up to 8 uM after 48 hrs by DHE dye-based fluorescence microscopic analysis; format: functional, cell-based
[15] = system: MCF7; test: Cell cycle arrest in human MCF7 cells assessed as accumulation at G1 phase at 6 uM after 24 hrs by propidium iodide/RNase A staining-based flow cytometric analysis (reference value: 52.21%); format: functional
[16] = system: MDA-MB-231; test: Induction of apoptosis in human MDA-MB-231 cells assessed as early apoptotic cells at 4 uM after 48 hrs by Annexin-V-FITC/propidium iodide staining based flow cytometry (reference value: 4.33%); format: functional
[17] = system: MDA-MB-231; test: Induction of apoptosis in human MDA-MB-231 cells assessed as viable cells at 4 uM after 48 hrs by Annexin-V-FITC/propidium iodide staining based flow cytometry (reference value: 92.1%); format: functional; details: MDA-MB-231, 48 h, read-out: Activity
[18] = target: Epidermal growth factor receptor (Homo sapiens) (UniProt P00533); test: Inhibition of EGFR in human MDA-MB-231 cells assessed as reduction in phosphorylated AKT expression after 8 hrs by Western blot analysis; format: cell-based
[19] = system: MDA-MB-231; test: Cytotoxicity against human MDA-MB-231 cells assessed as reduction in cell viability after 72 hrs by MTT assay; format: functional, cell-based; details: MDA-MB-231, 72 h
[20] = system: MCF7; test: Induction of apoptosis in human MCF7 cells assessed as early apoptotic cells at 4 uM after 48 hrs by Annexin-V-FITC/propidium iodide staining based flow cytometry (reference value: 3.05%); format: functional
[21] = system: MDA-MB-231; test: Induction of apoptosis in human MDA-MB-231 cells assessed as viable cells at 2 uM after 48 hrs by Annexin-V-FITC/propidium iodide staining based flow cytometry (reference value: 92.1%); format: functional; details: MDA-MB-231, 48 h, read-out: Activity
[22] = system: MCF7; test: Induction of apoptosis in human MCF7 cells assessed as necrotic cells at 2 uM after 48 hrs by Annexin-V-FITC/propidium iodide staining based flow cytometry (reference value: 1.57%); format: functional
[23] = system: MCF7; test: Induction of apoptosis in human MCF7 cells assessed as early apoptotic cells at 2 uM after 48 hrs by Annexin-V-FITC/propidium iodide staining based flow cytometry (reference value: 3.05%); format: functional
[24] = system: MCF7; test: Cell cycle arrest in human MCF7 cells assessed as accumulation at S phase at 12 uM after 24 hrs by propidium iodide/RNase A staining-based flow cytometric analysis (reference value: 17.17%); format: functional
[25] = system: MCF7; test: Antiproliferative activity against human MCF7 cells assessed as reduction in cell viability up to 32 uM by MTT assay; format: functional, cell-based; details: TDE = time-dependent effect
[26] = system: MCF7; test: Induction of apoptosis in human MCF7 cells assessed as downregulation of Bcl-2 protein expression at 3 to 12 uM after 48 hrs by Western blot analysis; format: functional, cell-based
[27] = system: MCF7; test: Cell cycle arrest in human MCF7 cells assessed as accumulation at G2 phase at 6 uM after 24 hrs by propidium iodide/RNase A staining-based flow cytometric analysis (reference value: 30.62%); format: functional
[28] = system: MDA-MB-231; test: Induction of apoptosis in human MDA-MB-231 cells assessed as increase in ROS generation up to 8 uM after 48 hrs by DHE dye-based fluorescence microscopic analysis; format: functional, cell-based
[29] = system: MCF7; test: Induction of apoptosis in human MCF7 cells assessed as increase in Bax expression levels at 3 to 12 uM after 48 hrs by Western blot analysis; format: functional, cell-based
[30] = system: MCF7; test: Induction of apoptosis in human MCF7 cells assessed as necrotic cells at 6 uM after 48 hrs by Annexin-V-FITC/propidium iodide staining based flow cytometry (reference value: 1.57%); format: functional
[31] = system: MDA-MB-231; test: Induction of apoptosis in human MDA-MB-231 cells assessed as early apoptotic cells at 2 uM after 48 hrs by Annexin-V-FITC/propidium iodide staining based flow cytometry (reference value: 4.33%); format: functional
[32] = system: MDA-MB-231; test: Cell cycle arrest in human MDA-MB-231 cells assessed as accumulation at S phase at 6 uM after 24 hrs by propidium iodide/RNase A staining-based flow cytometric analysis (reference value: 23.07%); format: functional
[33] = system: MCF7; test: Effect on total PI3K protein level in human MCF7 cells up to 12 uM after 8 hrs by Western blot analysis; format: ADME, cell-based; details: mcf7, 8 h
[34] = system: MDA-MB-231; test: Induction of apoptosis in human MDA-MB-231 cells assessed as downregulation of Bcl-2 protein expression at 3 to 12 uM after 48 hrs by Western blot analysis; format: functional, cell-based
[35] = system: MDA-MB-231; test: Effect on total PI3K protein level in human MDA-MB-231 cells up to 12 uM after 8 hrs by Western blot analysis; format: ADME, cell-based; details: mda-mb-231, 8 h
[36] = system: MCF7; test: Induction of apoptosis in human MCF7 cells assessed as viable cells at 4 uM after 48 hrs by Annexin-V-FITC/propidium iodide staining based flow cytometry (reference value: 91.1%); format: functional; details: MCF7, 48 h, read-out: Activity

Compound: FC(F)(F)c1ccc(CSc2nc(Nc3ccc(C(F)(F)F)cc3)c3ccccc3n2)cc1
- viability at 2 µM [1]: 81.1%
- Activity [2]: 15.3%
- Activity [3]: 21.98%
- IC50 [4]: 7.88 µM
- Activity [5]: 53%
- growth inhibition (GI) [6]: Active
- Activity [7]: Active
- Activity [8]: Dose-dependent effect
- Activity [9]: 7.49%
- growth inhibition (GI) [10]: Active
- inhibition [11]: Dose-dependent effect
- Activity [12]: 4.26%
- Activity [13]: Dose-dependent effect
- Activity [14]: Active
- Activity [15]: 65.05%
- Activity [16]: 10.6%
- viability at 4 µM [17]: 71.1%
- inhibition [18]: Dose-dependent effect
- IC50 [19]: 5.46 µM
- Activity [20]: 15%
- viability at 2 µM [21]: 82.9%
- Activity [22]: 3.28%
- Activity [23]: 11.4%
- Activity [24]: 10.65%
- Activity [25]: Tde
- Activity [26]: Active
- Activity [27]: 15.43%
- Activity [28]: Active
- Activity [29]: Active
- Activity [30]: 1.8%
- Activity [31]: 6.56%
- Activity [32]: 17.32%
- Activity [33]: Non-Toxic
- Activity [34]: Active
- Activity [35]: Non-Toxic
- viability at 4 µM [36]: 76.2%

Reference: ChEMBL document CHEMBL4393664, “2,4-Disubstituted quinazolines targeting breast cancer cells via EGFR-PI3K” (Eur J Med Chem, 2019)
